Reference: ChEMBL document CHEMBL1128680, “6-substituted 2,4-diamino-5-methylpyrido[2,3-d]pyrimidines as inhibitors of dihydrofolate reductases from Pneumocystis carinii and Toxoplasma gondii and as antitumor agents” (J Med Chem, 1995)
pIC50: −log10 of the molar value.

What was measured:
[1] = biological target: T1, Bifunctional dihydrofolate reductase-thymidylate synthase (Toxoplasma gondii, UniProt Q07422)
T1 sequence (Q07422 whole entry): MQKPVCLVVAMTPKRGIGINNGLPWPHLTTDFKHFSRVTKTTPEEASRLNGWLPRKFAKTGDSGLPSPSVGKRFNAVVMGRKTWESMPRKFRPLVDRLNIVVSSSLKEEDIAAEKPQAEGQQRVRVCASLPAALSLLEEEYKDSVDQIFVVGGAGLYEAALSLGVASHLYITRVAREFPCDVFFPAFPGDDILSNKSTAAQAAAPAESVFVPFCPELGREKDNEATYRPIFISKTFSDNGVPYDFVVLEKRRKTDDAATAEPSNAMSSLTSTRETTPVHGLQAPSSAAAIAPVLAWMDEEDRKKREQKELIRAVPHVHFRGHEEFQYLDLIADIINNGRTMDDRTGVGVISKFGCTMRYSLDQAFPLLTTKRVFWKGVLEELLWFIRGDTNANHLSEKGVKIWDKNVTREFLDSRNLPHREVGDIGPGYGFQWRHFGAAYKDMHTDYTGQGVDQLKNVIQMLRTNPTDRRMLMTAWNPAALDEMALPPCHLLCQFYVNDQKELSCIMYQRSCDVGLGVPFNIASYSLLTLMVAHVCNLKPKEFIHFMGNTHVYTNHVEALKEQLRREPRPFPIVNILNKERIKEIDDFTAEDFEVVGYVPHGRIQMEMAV
Description: Inhibitory activity against Dihydrofolate reductase from Toxoplasma gondii

Dihydrofolate reductase [2] = biological target: T2, Dihydrofolate reductase (Pneumocystis carinii, UniProt P16184)
T2 sequence (P16184 whole entry): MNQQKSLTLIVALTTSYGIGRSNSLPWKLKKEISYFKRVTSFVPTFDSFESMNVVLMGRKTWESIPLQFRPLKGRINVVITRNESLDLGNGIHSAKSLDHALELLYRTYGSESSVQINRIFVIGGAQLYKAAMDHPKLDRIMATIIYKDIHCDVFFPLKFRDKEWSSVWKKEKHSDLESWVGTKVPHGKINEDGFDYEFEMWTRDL
Description: Inhibitory activity against Dihydrofolate reductase from Pneumocystis carinii

Dihydrofolate reductase [3] = biological target: T3, Dihydrofolate reductase (Rattus norvegicus, UniProt Q920D2)
T3 sequence (Q920D2 whole entry): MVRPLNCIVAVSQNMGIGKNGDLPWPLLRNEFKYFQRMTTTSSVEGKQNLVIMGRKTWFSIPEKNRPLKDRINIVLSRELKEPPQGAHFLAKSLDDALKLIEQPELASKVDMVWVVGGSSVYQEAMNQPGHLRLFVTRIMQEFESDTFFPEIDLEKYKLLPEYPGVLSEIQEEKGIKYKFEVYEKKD
Description: Inhibitory activity against Dihydrofolate reductase from rat liver

[4] = Ratio of the inhibitory concentrations against Toxoplasma gondii […] and Toxoplasma gondii DHFR.
Toxoplasma gondii = experiment: Inhibitory activity against cultured Toxoplasma gondii; type: functional, organism-based
HCT-15 = experiment: Cytotoxic activity against HCT-15 colon cancer cell line; type: functional; conditions: Homo sapiens
HCT-116 = experiment: Cytotoxic activity against HCT116 colon cancer cell line; type: functional; conditions: Homo sapiens
SK-MEL-5 = experiment: Cytotoxic activity against SK-MEL-5 Melanoma cell line; type: functional; conditions: Homo sapiens
SR = experiment: Cytotoxic activity against SR Leukemia cell line; type: functional; conditions: Homo sapiens
A549 = experiment: Cytotoxic activity against A549/ATCC non-small cell-lung cancer cell line; type: functional; conditions: Homo sapiens
MDA-N [5] = experiment: Cytotoxic activity against MDA-N Breast cancer cell line; type: functional; conditions: Homo sapiens
SF-295 = experiment: Cytotoxic activity against SF-295 CNS cancer cell line; type: functional; conditions: Homo sapiens
MDA-MB-435 = experiment: Cytotoxic activity against MDA-MB-435 Breast cancer cell line; type: functional; conditions: Homo sapiens
LOX IMVI = experiment: Cytotoxic activity against LOXIMVI Melanoma cell line; type: functional; conditions: Homo sapiens
SF-268 = experiment: Cytotoxic activity against SF-268 CNS canser cell line; type: functional; conditions: Homo sapiens
U-251 = experiment: Cytotoxic activity against U251 CNS cancer cell line; type: functional; conditions: Homo sapiens
NCI-H322M = experiment: Cytotoxic activity against NCI-H322M non-small cell-lung cancer cell line; type: functional; conditions: Homo sapiens
K562 = experiment: Cytotoxic activity against K-562 Leukemia cell line; type: functional; conditions: Homo sapiens
HT-29 = experiment: Cytotoxic activity against HT-29 colon cancer cell line; type: functional; conditions: Homo sapiens
NCI-H460 = experiment: Cytotoxic activity against NCI-H460 non-small cell-lung cancer cell line; type: functional; conditions: Homo sapiens
DU-145 = experiment: Cytotoxic activity against DU-145 Prostate cancer cell line; type: functional; conditions: Homo sapiens
CCRF-CEM = experiment: Cytotoxic activity against CCRF-CEM Leukemia cell line; type: functional; conditions: Homo sapiens
MDA-MB-231 = experiment: Cytotoxic activity against MDA-MB-231/ATCC Breast cancer cell line; type: functional; conditions: Homo sapiens
UACC-257 = experiment: Cytotoxic activity against UACC-257 Melanoma cell line; type: functional; conditions: Homo sapiens
786-0 = experiment: Cytotoxic activity against 786-0 Renal cancer cell line; type: functional; conditions: Homo sapiens
ACHN = experiment: Cytotoxic activity against ACHN Renal cancer cell line; type: functional; conditions: Homo sapiens
MOLT-4 = experiment: Cytotoxic activity against MOLT-4 Leukemia cell line; type: functional; conditions: Homo sapiens
PC-3 = experiment: Cytotoxic activity against PC-3 Prostate cancer cell line; type: functional; conditions: Homo sapiens
[6] = (§1) Cytotoxic activity against IGROV1 Ovarian cancer cell line; type: functional; conditions: Homo sapiens, IGROV-1
UACC-62 = experiment: Cytotoxic activity against UACC-62 Melanoma cell line; type: functional; conditions: Homo sapiens
SW-620 = experiment: Cytotoxic activity against SW-620 colon cancer cell line; type: functional; conditions: Homo sapiens
Dihydrofolate reductase [7] = biological target: Dihydrofolate reductase (Lactobacillus casei, UniProt P00381)
Description: Inhibitory activity against Dihydrofolate reductase from Lactobacillus casei

MDA-N [8] = experiment: Cytotoxic activity against MDA-N breast cancer cell line; type: functional; conditions: Homo sapiens
IGROV-1 = experiment: as §1; type: functional; conditions: Homo sapiens

Dihydrofolate reductase (Lactobacillus casei, UniProt P00381), sequence (P00381 whole entry): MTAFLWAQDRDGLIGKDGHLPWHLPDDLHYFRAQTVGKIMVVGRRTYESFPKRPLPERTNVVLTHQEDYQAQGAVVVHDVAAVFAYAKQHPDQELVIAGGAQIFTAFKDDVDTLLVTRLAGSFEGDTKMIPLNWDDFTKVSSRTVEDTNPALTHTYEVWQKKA

With `CCN(Cc1cnc2nc(N)nc(N)c2c1C)c1cc(OC)c(OC)c(OC)c1` the pIC50 [1] was 8.11, the pIC50 (Dihydrofolate reductase [2]) was 7.30 and the pIC50 (Dihydrofolate reductase [3]) was 7.98.

Work on `COc1cc(NCc2cnc3nc(N)nc(N)c3c2C)cc(OC)c1` yielded a Ratio [4] of 125, a pIC50 [1] of 8.32 and a pIC50 (Toxoplasma gondii) of 6.22. For the same molecule, the pIC50 (Dihydrofolate reductase [2]) was 7.64 and the pIC50 (Dihydrofolate reductase [3]) was 7.37.

In the case of `COc1ccc(N(C)Cc2cnc3nc(N)nc(N)c3c2C)cc1OC`, the pIC50 [1] was 7.54, the pIC50 (Dihydrofolate reductase [2]) was 6.49 and the pIC50 (Dihydrofolate reductase [3]) was 7.36.

In the case of `CCOc1ccc(OCC)c(NCc2cnc3nc(N)nc(N)c3c2C)c1`, the Ratio [4] was 19, the pIC50 [1] was 7.77 and the pIC50 (Toxoplasma gondii) was 6.49. It also gave a pIC50 (Dihydrofolate reductase [2]) of 7.12 and a pIC50 (Dihydrofolate reductase [3]) of 7.76.

For `COc1ccc(NCc2cnc3nc(N)nc(N)c3c2C)c2ccccc12`, the GI50 (HCT-15) was 45.6 nM, the GI50 (HCT-116) was 11.7 nM and the GI50 (SK-MEL-5) was 57.8 nM. For the same molecule, the Ratio [4] was 2, the GI50 (SR) was 76 nM and the GI50 (A549) was 38.4 nM. The GI50 (MDA-N [5]) was 42.5 nM, the pIC50 [1] was 7.64 and the GI50 (SF-295) was 83.2 nM. For the same molecule, the GI50 (MDA-MB-435) was 62.1 nM, the GI50 (LOX IMVI) was 69.4 nM and the GI50 (SF-268) was 60.4 nM. For the same molecule, the GI50 (U-251) was 72.9 nM, the GI50 (NCI-H322M) was 85 nM and the GI50 (K562) was 16.1 nM. The GI50 (HT-29) was 72.3 nM, the GI50 (NCI-H460) was 49.1 nM and the GI50 (DU-145) was 52.1 nM. It also gave a GI50 (CCRF-CEM) of 76.6 nM, a GI50 (MDA-MB-231) of 18.8 nM and a pIC50 (Toxoplasma gondii) of 7.40. For the same molecule, the pIC50 (Dihydrofolate reductase [2]) was 7.39, the GI50 (UACC-257) was 86.8 nM and the pIC50 (Dihydrofolate reductase [3]) was 7.27. It also gave a GI50 (786-0) of 55 nM, a GI50 (ACHN) of 47.9 nM and a GI50 (MOLT-4) of 91.1 nM. It also gave a GI50 (PC-3) of 79.8 nM, a GI50 [6] of 86.8 nM and a GI50 (UACC-62) of 43.2 nM. The GI50 (SW-620) was 79.6 nM.

In the case of `COc1ccc(NCc2cnc3nc(N)nc(N)c3c2C)cc1OC`, the pIC50 [1] was 8.06, the pIC50 (Dihydrofolate reductase [7]) was 7.08 and the pIC50 (Dihydrofolate reductase [2]) was 7.36. It also gave a pIC50 (Dihydrofolate reductase [3]) of 8.12.

With `COc1ccc(N(C)Cc2cnc3nc(N)nc(N)c3c2C)c(OC)c1` the Ratio [4] was 46, the pIC50 [1] was 7.42 and the pIC50 (Toxoplasma gondii) was 5.76. For the same molecule, the pIC50 (Dihydrofolate reductase [2]) was 6.29 and the pIC50 (Dihydrofolate reductase [3]) was 6.48.

For `COc1ccc(NCc2cnc3nc(N)nc(N)c3c2C)c(OC)c1`, the GI50 (HCT-15) was 2200 nM, the GI50 (HCT-116) was 173 nM and the GI50 (SK-MEL-5) was 1150 nM. It also gave a GI50 (SR) of 3530 nM, a GI50 (A549) of 635 nM and a pIC50 [1] of 7.25. It also gave a GI50 (SF-295) of 1610 nM, a GI50 (MDA-N [8]) of 359 nM and a GI50 (MDA-MB-435) of 3530 nM. It also gave a GI50 (LOX IMVI) of 3350 nM, a GI50 (SF-268) of 4170 nM and a GI50 (U-251) of 5810 nM. It also gave a GI50 (NCI-H322M) of 50600 nM, a GI50 (K562) of 305 nM and a GI50 (HT-29) of 2380 nM. It also gave a GI50 (NCI-H460) of 481 nM, a GI50 (DU-145) of 2830 nM and a GI50 (CCRF-CEM) of 4290 nM. For the same molecule, the GI50 (MDA-MB-231) was 1910 nM, the pIC50 (Dihydrofolate reductase [2]) was 6.50 and the GI50 (UACC-257) was 100000 nM. It also gave a pIC50 (Dihydrofolate reductase [3]) of 6.67, a GI50 (786-0) of 588 nM and a GI50 (ACHN) of 2890 nM. The GI50 (MOLT-4) was 1220 nM, the GI50 (PC-3) was 852 nM and the GI50 (IGROV-1) was 6270 nM. For the same molecule, the GI50 (UACC-62) was 126000 nM.
